Laboratory results published in US9556148B2, “N-cyanomethylamides as inhibitors of janus kinase” (CADILA HEALTHCARE LIMITED, priority 2013, dated 2017).

Legend:
[1] = target: recombinant purified human JAK1 (Homo sapiens (Human), UniProt P23458); experiment: in vitro JAK kinase assay on ADP Glo platform, JAK1; type: biochemical; conditions: 50 μM ATP, 1 hr at room temperature
Method: (§1) NCEs were screened using in vitro JAK (1, 2 and 3) kinase assay on ADP Glo platform (Promega). Fixed amount of recombinant purified human JAK (25 ng of JAK1 and 10 ng of JAK2 and JAK3 per reaction, from Life Technologies Ltd) were incubated with increasing concentration of NCEs in 1× kinase reaction buffer (40 mM Tris-Cl, pH7.5, 20 mM MgCl2, 0.1 mg/ml BSA and 50 μM DTT). Enzymatic reaction was initiated by adding a substrate cocktail containing 50 μM of ATP (final concentration) and 5 μg for JAK1 and 2.5 μg for JAK2 and JAK3 of polyGln4Tyr1 (Signal Chem) in total 25 μl of reaction in 96 well plate. The reaction was incubated at room temperature for 1 hr.
(§2) After 1 hr of incubation equal volume (25 μl per reaction) of ADP Glo was added and incubated at room temperature for 40 min.
(§3) This was followed by addition of kinase detection reagent (50 μl per reaction) and incubation at room temperature for 30 min. Finally, plate was read for luminescence at an integration time of 500 millisecond per well.
(§4) Data were plotted taking Enzyme with no inhibitor set as the 100% kinase activity. IC50 values were calculated using Graph Pad Prism software.

[2] = target: recombinant purified human JAK3 (Homo sapiens (Human), UniProt P52333); experiment: in vitro JAK kinase assay on ADP Glo platform, JAK3; type: biochemical; conditions: 50 μM ATP, 1 hr at room temperature; read-out: JAK-3 IC50
Method: as §1, §2, §3, §4

[3] = system: PGPS arthritis, PAW inflammation; experiment: Peptidogylcan Polysaccharide Polymers (PGPS) arthritis; type: in vivo, Sprague dawley rats; conditions: rats, values for day 16
Method: Female Sprague dawley rats were primed with an intra-articular injection of 20 μl of PGPS at 0.5 mg/ml of rhamnose in the right ankle. At 2 weeks the ankle diameters were measured with plethysmometer and rats assigned to groups of similar distribution of initial joint diameters. Rats then received their first dose of compound followed 1 h later by an i.v. injection of 0.5 ml of PGPS (0.5 mg/ml of rhamnose) in the tail vein. Compounds were dosed at 10 mg/kg and ankle diameters measured for 3 days [i.e. day 15, 16, 17]. Values are given for day 16.

[4] = target: recombinant purified human JAK2 (Homo sapiens (Human), UniProt O60674); experiment: in vitro JAK kinase assay on ADP Glo platform, JAK2; type: biochemical; conditions: 50 μM ATP, 1 hr at room temperature; read-out: JAK-2 IC50
Method: as §1, §2, §3, §4

JAK 2 = JAK 2 (Homo sapiens (Human), UniProt O60674); conditions: reported in WO 2008109943; read-out: reported in vitro JAK 2 inhibition; cited from earlier work
JAK-3 = JAK-3 (Homo sapiens (Human), UniProt P52333); conditions: reported in WO 2008109943; read-out: reported in vitro JAK-3 inhibition; cited from earlier work
Chain of JAK-3 (P52333 whole entry, species assumed): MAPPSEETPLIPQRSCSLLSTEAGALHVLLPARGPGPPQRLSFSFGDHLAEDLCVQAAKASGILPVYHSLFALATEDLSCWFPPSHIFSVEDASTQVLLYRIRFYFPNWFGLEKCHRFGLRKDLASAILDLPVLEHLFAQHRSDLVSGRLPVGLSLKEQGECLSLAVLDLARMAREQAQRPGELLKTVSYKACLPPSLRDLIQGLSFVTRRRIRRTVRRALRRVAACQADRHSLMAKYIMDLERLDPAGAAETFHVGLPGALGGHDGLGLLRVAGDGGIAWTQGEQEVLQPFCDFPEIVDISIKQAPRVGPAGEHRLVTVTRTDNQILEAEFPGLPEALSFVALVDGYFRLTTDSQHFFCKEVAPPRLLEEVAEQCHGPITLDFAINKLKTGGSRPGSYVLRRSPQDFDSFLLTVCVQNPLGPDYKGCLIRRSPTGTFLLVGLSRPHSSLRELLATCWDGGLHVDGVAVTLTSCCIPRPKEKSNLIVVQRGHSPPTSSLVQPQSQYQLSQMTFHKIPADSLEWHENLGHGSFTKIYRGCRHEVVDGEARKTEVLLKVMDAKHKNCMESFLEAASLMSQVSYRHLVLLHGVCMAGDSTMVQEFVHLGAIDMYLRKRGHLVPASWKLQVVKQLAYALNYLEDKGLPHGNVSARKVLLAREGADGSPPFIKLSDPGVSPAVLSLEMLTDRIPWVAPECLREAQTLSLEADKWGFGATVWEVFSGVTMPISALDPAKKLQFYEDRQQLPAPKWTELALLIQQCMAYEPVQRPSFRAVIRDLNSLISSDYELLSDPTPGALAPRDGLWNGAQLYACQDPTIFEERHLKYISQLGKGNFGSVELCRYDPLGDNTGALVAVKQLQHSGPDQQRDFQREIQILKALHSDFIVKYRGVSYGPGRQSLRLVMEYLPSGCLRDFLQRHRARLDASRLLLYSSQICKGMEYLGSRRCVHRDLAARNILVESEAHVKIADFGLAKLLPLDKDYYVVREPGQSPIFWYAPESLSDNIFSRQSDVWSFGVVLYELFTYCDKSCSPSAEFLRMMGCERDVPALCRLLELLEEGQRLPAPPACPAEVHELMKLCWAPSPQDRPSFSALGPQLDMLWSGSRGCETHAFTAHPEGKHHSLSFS

Chain of recombinant purified human JAK1 (P23458 whole entry): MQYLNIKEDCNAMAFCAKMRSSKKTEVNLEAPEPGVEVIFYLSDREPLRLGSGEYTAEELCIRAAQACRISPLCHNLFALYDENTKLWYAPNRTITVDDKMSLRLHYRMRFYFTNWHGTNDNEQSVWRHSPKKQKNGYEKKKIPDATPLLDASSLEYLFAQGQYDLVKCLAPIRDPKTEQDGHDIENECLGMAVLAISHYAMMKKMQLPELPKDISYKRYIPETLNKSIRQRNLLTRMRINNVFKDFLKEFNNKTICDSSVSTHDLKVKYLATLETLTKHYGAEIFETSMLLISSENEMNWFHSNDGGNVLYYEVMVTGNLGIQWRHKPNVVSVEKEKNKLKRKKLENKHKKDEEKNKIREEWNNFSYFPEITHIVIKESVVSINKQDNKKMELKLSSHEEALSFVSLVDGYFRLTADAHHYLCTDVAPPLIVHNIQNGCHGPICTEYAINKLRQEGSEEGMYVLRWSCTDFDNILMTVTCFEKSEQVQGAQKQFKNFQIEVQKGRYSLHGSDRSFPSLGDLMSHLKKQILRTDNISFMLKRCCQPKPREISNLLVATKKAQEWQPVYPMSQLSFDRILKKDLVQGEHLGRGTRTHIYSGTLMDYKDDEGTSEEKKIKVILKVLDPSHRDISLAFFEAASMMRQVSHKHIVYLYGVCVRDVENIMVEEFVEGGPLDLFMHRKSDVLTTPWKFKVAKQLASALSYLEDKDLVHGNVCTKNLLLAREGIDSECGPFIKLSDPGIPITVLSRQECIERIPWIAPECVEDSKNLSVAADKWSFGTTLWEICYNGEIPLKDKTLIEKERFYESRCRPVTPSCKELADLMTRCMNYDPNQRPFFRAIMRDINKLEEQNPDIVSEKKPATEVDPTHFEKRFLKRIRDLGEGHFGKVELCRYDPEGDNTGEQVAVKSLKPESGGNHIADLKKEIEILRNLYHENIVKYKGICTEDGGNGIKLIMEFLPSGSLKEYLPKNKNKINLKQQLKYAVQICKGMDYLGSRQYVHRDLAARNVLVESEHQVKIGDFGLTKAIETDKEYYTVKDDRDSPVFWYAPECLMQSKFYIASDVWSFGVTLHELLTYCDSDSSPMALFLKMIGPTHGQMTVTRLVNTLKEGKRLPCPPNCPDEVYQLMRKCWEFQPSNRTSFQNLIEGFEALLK
Chain of recombinant purified human JAK2 (O60674 whole entry): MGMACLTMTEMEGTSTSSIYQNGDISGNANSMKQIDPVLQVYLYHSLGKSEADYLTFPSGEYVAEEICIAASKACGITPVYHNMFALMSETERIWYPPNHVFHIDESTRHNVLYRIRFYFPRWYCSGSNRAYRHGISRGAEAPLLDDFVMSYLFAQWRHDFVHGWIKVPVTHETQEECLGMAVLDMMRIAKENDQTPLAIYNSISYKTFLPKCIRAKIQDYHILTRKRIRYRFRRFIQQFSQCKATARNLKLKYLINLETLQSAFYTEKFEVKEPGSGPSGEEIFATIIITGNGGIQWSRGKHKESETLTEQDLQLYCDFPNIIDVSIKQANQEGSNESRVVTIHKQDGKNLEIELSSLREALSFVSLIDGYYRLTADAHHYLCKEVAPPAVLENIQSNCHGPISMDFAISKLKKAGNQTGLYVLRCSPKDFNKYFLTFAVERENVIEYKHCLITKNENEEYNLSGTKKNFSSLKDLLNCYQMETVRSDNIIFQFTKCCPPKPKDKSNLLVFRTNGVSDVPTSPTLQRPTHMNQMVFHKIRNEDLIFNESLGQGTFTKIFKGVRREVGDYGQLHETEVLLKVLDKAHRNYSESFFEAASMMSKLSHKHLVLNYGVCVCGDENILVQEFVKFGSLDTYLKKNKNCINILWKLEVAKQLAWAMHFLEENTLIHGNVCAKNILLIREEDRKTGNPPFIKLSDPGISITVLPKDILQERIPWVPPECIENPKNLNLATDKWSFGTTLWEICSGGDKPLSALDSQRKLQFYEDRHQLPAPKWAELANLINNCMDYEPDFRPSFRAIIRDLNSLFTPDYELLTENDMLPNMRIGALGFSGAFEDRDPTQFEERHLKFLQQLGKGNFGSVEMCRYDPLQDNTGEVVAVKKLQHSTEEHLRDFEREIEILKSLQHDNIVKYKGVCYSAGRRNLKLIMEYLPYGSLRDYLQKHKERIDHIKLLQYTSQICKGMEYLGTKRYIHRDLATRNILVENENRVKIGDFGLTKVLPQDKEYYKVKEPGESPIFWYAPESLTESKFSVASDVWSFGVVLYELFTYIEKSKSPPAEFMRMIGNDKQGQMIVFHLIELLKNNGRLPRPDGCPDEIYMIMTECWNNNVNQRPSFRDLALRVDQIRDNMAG
Chain of recombinant purified human JAK3 (P52333 whole entry): as the sequence (P52333 whole entry, species assumed) above
Chain of JAK 2 (O60674 whole entry, species assumed): as the sequence (O60674 whole entry) above

SMILES | IC50 [1] [nM] | IC50 [2] [nM] | % Reduction in PAW inflammation at dose 10 mg/Kg [3] [%] | IC50 [4] [nM] | IC50 (JAK 2) [nM] | IC50 (JAK-3) [nM]
N#CCNC(=O)c1ccc(-c2ccnc(Nc3ccc(N4CCC(N5CCCC5=O)CC4)cc3)n2)cc1 [Example 1, N-(cyanomethyl)-4-(2-((4-(4-(2-oxopyrrolidin-1-yl)piperidin-1-yl)phenyl)amino)pyrimidin-4-yl)benzamide] | 12.1 | 72 | 51 |  |  | 
N#CCNC(=O)c1ccc(-c2ccnc(Nc3ccc(N4CCC(N5CCOCC5)CC4)cc3)n2)cc1 [Example 3, N-(cyanomethyl)-4-(2-((4-(4-morpholinopiperidin-1-yl)phenyl)amino)pyrimidin-4-yl)benzamide] |  |  | 56 |  |  | 
N#CCNC(=O)c1ccc(-c2ccnc(Nc3ccc(N4CCC(n5cncn5)CC4)cc3)n2)cc1 [Example 4, 4-(2-((4-(4-(1H-1,2,4-triazol-1-yl)piperidin-1-yl)phenyl)amino)pyrimidin-4-yl)-N-(cyanomethyl)benzamide] | 21 | 66 | 52 | 17 |  | 
N#CCNC(=O)c1ccc(-c2ccnc(Nc3ccc(N4CCC(N5CC6CC(C5)O6)CC4)cc3)n2)cc1 [Example 17, 4-(2-((4-(4-(6-oxa-3-azabicyclo[3.1.1]heptan-3-yl)piperidin-1-yl)phenyl)amino)pyrimidin-4-yl)-N-(cyanomethyl)benzamide] | 13 | 69 | 57 | 8 |  | 
N#CCNC(=O)c1ccc(-c2ccnc(Nc3ccc(N4CCC(N5CCC6(CCCO6)CC5)CC4)cc3)n2)cc1 [Example 24, 4-(2-((4-(4-(1-oxa-8-azaspiro[4.5]decan-8-yl)piperidin-1-yl)phenyl)amino)pyrimidin-4-yl)-N-(cyanomethyl)benzamide] | 5 | 23 | 41 | 5 |  | 
Cc1nnc(C2CCN(c3ccc(Nc4nccc(-c5ccc(C(=O)NCC#N)cc5)n4)cc3)CC2)o1 [Example 25, N-(cyanomethyl)-4-(2-((4-(4-(5-methyl-1,3,4-oxadiazol-2-yl)piperidin-1-yl)phenyl)amino)pyrimidin-4-yl)benzamide] | 12 |  | 63 |  |  | 
N#CCNC(=O)c1ccc(-c2ccnc(Nc3ccc(N4CCC(N5CCC6(CCC(=O)O6)CC5)CC4)cc3)n2)cc1 [Example 28, N-(cyanomethyl)-4-(2-((4-(4-(2-oxo-1-oxa-8-azaspiro[4.5]decan-8-yl)piperidin-1-yl)phenyl)amino)pyrimidin-4-yl)benzamide] | 11 | 55 |  | 6 |  | 
N#CCNC(=O)c1ccc(-c2ccnc(Nc3ccc(N4CCC(c5n[nH]c(=O)o5)CC4)cc3)n2)cc1 [Example 29, N-(cyanomethyl)-4-(2-((4-(4-(5-oxo-4,5-dihydro-1,3,4-oxadiazol-2-yl)piperidin-1-yl)phenyl)amino)pyrimidin-4-yl)benzamide] | 15 | 56 | 43 | 21 |  | 
COc1nnc(C2CCN(c3ccc(Nc4nccc(-c5ccc(C(=O)NCC#N)cc5)n4)cc3)CC2)o1 [Example 31, N-(cyanomethyl)-4-(2-((4-(4-(5-methoxy-1,3,4-oxadiazol-2-yl)piperidin-1-yl)phenyl)amino)pyrimidin-4-yl)benzamide] | 20 | 74 |  | 17 |  | 
N#CCNC(=O)c1ccc(-c2ccnc(Nc3ccc(N4CCN(C5=NCCN5)CC4)cc3)n2)cc1 [Example 33, N-(cyanomethyl)-4-(2-((4-(4-(4,5-dihydro-1H-imidazol-2-yl)piperazin-1-yl)phenyl)amino)pyrimidin-4-yl)benzamide] | 20 | 54 |  | 11 |  | 
N#CCNC(=O)c1ccc(-c2ccnc(Nc3ccc(N4CCC(N5CC6OCCOC6C5)C4)cc3)n2)cc1 (stereo not drawn) [Example 35, N-(cyanomethyl)-4-(2-((4-(3-(tetrahydro-2H-[1,4]dioxino[2,3-c]pyrrol-6(3H)-yl)pyrrolidin-1-yl)phenyl)amino)pyrimidin-4-yl)benzamide] | 15 | 138 |  | 21 |  | 
Cc1cnc(Nc2ccc(N3CCC(N4CCOCC4)CC3)cc2)nc1-c1ccc(C(=O)NCC#N)cc1 [Example 40, N-(cyanomethyl)-4-(5-methyl-2-((4-(4-morpholinopiperidin-1-yl)phenyl)amino)pyrimidin-4-yl)benzamide] | 1.3 | 32 |  | 2.8 |  | 
Cc1cnc(Nc2ccc(N3CCC(N4CCCC4=O)CC3)cc2)nc1-c1ccc(C(=O)NCC#N)cc1 [Example 41, N-(cyanomethyl)-4-(5-methyl-2-((4-(4-(2-oxopyrrolidin-1-yl)piperidin-1-yl)phenyl)amino)pyrimidin-4-yl)benzamide] | 0.6 | 10.7 |  | 2.5 |  | 
Cc1cnc(Nc2ccc(N3CCC(N4CCC5(CCCO5)CC4)CC3)cc2)nc1-c1ccc(C(=O)NCC#N)cc1 [Example 42, 4-(2-((4-(4-(1-oxa-8-azaspiro[4.5]decan-8-yl)piperidin-1-yl)phenyl)amino)-5-methylpyrimidin-4-yl)-N-(cyanomethyl)benzamide] | 2.5 | 59 |  | 4.3 |  | 
Cc1nnc(C2CCN(c3ccc(Nc4ncc(C)c(-c5ccc(C(=O)NCC#N)cc5)n4)cc3)CC2)o1 [Example 43, N-(cyanomethyl)-4-(5-methyl-2-((4-(4-(5-methyl-1,3,4-oxadiazol-2-yl)piperidin-1-yl)phenyl)amino)pyrimidin-4-yl)benzamide] | 1.2 | 52.3 |  | 2.6 |  | 
N#CCNC(=O)c1ccc(-c2ccnc(Nc3ccc(ON4CCC(N5CCCC5)CC4)cc3)n2)cc1 [compounds 2] |  |  |  |  | < 1000 | < 20000
